Test system: spike wave discharges
Assay: Attenuation of petit mal absence-like spike wave discharges (EEG)
Assay type: in vivo, male Wistar rats
Details: for Total spike wave duration: p < 0.05
Procedure: Animals: Male albino rats of the Wistar strain (CAMM Research) were maintained on a 12:12 hour light-dark cycle and individually housed throughout these experiments. They were fed standard rodent diet with food and water provided ad libitum.
EEG Recordings: To record spike wave discharges, rats were surgically implanted with permanently affixed EEG electrodes over the frontal codex using previously described techniques (Radek, Brain Res., 1993, in press). After at least a ten day recovery from this surgery, EEG recordings were made inside darkened sound attenuating chambers. Rats were allowed to move freely within the chambers and computerized activity monitors recorded animal motion during these studies. Only those rats that express spike wave discharges, as identified from preliminary recordings, were used to test the effects of nicotinic agents.
Drug studies: EEG recordings were obtained from each rat for a period of 20 minutes of total waking immobility immediately after administration of drug, or a drug-free control solution. Immobility was characterized as the absence of infrared beam interruptions from the activity monitor system. Spike wave activity was identified as regular 6-10 Hz complexes with amplitudes of 0.4 to 1.0 mV. The total spindling duration for 20 minutes of waking immobility was calculated by determining the length (in seconds) of each spike wave burst, and adding each of these times together to obtain a total spindle time for the recording session. Each rat was administered the control solution and one or two doses of the test compounds and each dosing was given at least 48 hours after the previous treatment.
The compound of Example 2 was dissolved in saline to the desired concentration.

For Cc1cc([C@@H]2CCCN2C)on1.O=C(O)C(=O)O [Example 2, 3-Methyl-5-(1-methyl-2(S)-pyrrolidinyl)-isoxazole oxalate salt], the “Total spike wave duration” value (Table 8, 1.9 μmol/kg i.p.) was 26.7 ± 9.2 s, the “Total spike wave duration” value (Table 8, 6.2 μmol/kg i.p.) was 33.1 ± 10.2 s and the “Total spike wave duration” value (Table 9, 10 μmol/kg p.o.) was 25.6 ± 7.5 s. For the same compound, the “Total spike wave duration” value (Table 11, 6.2 μmol/kg i.p.) was 8.2 ± 3.8 s, the “effect on incidence of spike wave discharges” value (i.p., 20 min waking immobility, p<0.05 where significant) was “significantly lowered the incidence of spike wave discharges” and the “effect on incidence of spike wave discharges” value (oral, 10.0 μmol/kg, p<0.05) was “significantly lowered the incidence of spike wave discharges”.

Reference: patent US5409946A, “Isoxazole, isothiazole and pyrazole compounds that enhance cognitive function” (Abbott Laboratories, priority 1993, dated 1995)
